Laboratory results published in the supplement of paper PMC11451515.

System: P12-Ichikawa
Test: cell viability relative to DMSO control; higher = less cytotoxic
Settings: 48 h
In short: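 Viability, reported as a per-plate percentage of DMSO wells with cell-free wells as background, came from CellTiter-Glo One luminescence. Reading took place after 48 h at 37°C. Before that, NOMO1 or SEM (500 cells/well) or P12-Ichikawa (1000 cells/well) leukemia cells, adapted for at least four passages in each medium, were seeded in 1536-well plates (5 μl) and pin-dosed with library compounds in DMSO, 47 μM to 0.79 nM over 11 threefold points.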

[1] = HPLM + 10% dialyzed FBS, 0.000781 µM
[2] = HPLM + 10% dialyzed FBS, 0.00234 µM
[3] = HPLM + 10% dialyzed FBS, 0.00702 µM
[4] = HPLM + 10% dialyzed FBS, 0.0211 µM
[5] = HPLM + 10% dialyzed FBS, 0.0632 µM
[6] = HPLM + 10% dialyzed FBS, 0.19 µM
[7] = HPLM + 10% dialyzed FBS, 0.569 µM
[8] = HPLM + 10% dialyzed FBS, 1.71 µM
[9] = HPLM + 10% dialyzed FBS, 5.12 µM
[10] = HPLM + 10% dialyzed FBS, 15.4 µM
[11] = HPLM + 10% dialyzed FBS, 46.1 µM
[12] = RPMI 5 mM glucose + 10% FBS, 0.000781 µM
[13] = RPMI 5 mM glucose + 10% FBS, 0.00234 µM
[14] = RPMI 5 mM glucose + 10% FBS, 0.00702 µM
[15] = RPMI 5 mM glucose + 10% FBS, 0.0211 µM
[16] = RPMI 5 mM glucose + 10% FBS, 0.0632 µM
[17] = RPMI 5 mM glucose + 10% FBS, 0.19 µM
[18] = RPMI 5 mM glucose + 10% FBS, 0.569 µM
[19] = RPMI 5 mM glucose + 10% FBS, 1.71 µM
[20] = RPMI 5 mM glucose + 10% FBS, 5.12 µM
[21] = RPMI 5 mM glucose + 10% FBS, 15.4 µM
[22] = RPMI 5 mM glucose + 10% FBS, 46.1 µM
[23] = RPMI 5 mM glucose + 10% dialyzed FBS, 0.000781 µM
[24] = RPMI 5 mM glucose + 10% dialyzed FBS, 0.00234 µM
[25] = RPMI 5 mM glucose + 10% dialyzed FBS, 0.00702 µM
[26] = RPMI 5 mM glucose + 10% dialyzed FBS, 0.0211 µM
[27] = RPMI 5 mM glucose + 10% dialyzed FBS, 0.0632 µM
[28] = RPMI 5 mM glucose + 10% dialyzed FBS, 0.19 µM
[29] = RPMI 5 mM glucose + 10% dialyzed FBS, 0.569 µM
[30] = RPMI 5 mM glucose + 10% dialyzed FBS, 1.71 µM
[31] = RPMI 5 mM glucose + 10% dialyzed FBS, 5.12 µM
[32] = RPMI 5 mM glucose + 10% dialyzed FBS, 15.4 µM
[33] = RPMI 5 mM glucose + 10% dialyzed FBS, 46.1 µM

SMILES | cell viability [1] [%] | cell viability [2] [%] | cell viability [3] [%] | cell viability [4] [%] | cell viability [5] [%] | cell viability [6] [%] | cell viability [7] [%] | cell viability [8] [%] | cell viability [9] [%] | cell viability [10] [%] | cell viability [11] [%] | cell viability [12] [%] | cell viability [13] [%] | cell viability [14] [%] | cell viability [15] [%] | cell viability [16] [%] | cell viability [17] [%] | cell viability [18] [%] | cell viability [19] [%] | cell viability [20] [%] | cell viability [21] [%] | cell viability [22] [%] | cell viability [23] [%] | cell viability [24] [%] | cell viability [25] [%] | cell viability [26] [%] | cell viability [27] [%] | cell viability [28] [%] | cell viability [29] [%] | cell viability [30] [%] | cell viability [31] [%] | cell viability [32] [%] | cell viability [33] [%]
Cc1cn(CCN2CCN(c3ccccc3-c3cc(C#N)cc(C(=O)NCCCN4CCCC4)c3)CC2)c2ccccc12 | 110 | 109 | 106 | 104 | 109 | 115 | 119 | 120 | 91.2 | 8.78 | 6.19 | 107 | 107 | 103 | 115 | 118 | 118 | 124 | 103 | 90.8 | 23.2 | 15.6 | 118 | 119 | 117 | 117 | 124 | 126 | 128 | 111 | 93 | 26.9 | 19.9
COC1=CC2=C(C=C1OC)[C@H]3[C@@H](CO2)OC4=C(C=CC5=C4\C=C/C(C)(C)O5)C3=O | 95.5 | 103 | 96.9 | 99.9 | 93.5 | 102 | 93.5 | 69.7 | 67.7 | 65.6 | 2.52 | 89 | 94.9 | 98.9 | 95.9 | 69.6 | 80 | 62.2 | 52.1 | 48.3 | 46.5 | 3.34 | 84.1 | 89.1 | 93.8 | 88.9 | 74.4 | 79.1 | 69.3 | 62.1 | 58.5 | 60.9 | 3.49
CC[C@@]1(O)C[C@H](O[C@H]2C[C@H](N(C)C)[C@H](O[C@H]3C[C@H](O)[C@H](O[C@H]4CCC(=O)[C@H](C)O4)[C@H](C)O3)[C@H](C)O2)c2c(cc3c(c2O)C(=O)c2c(O)cccc2C3=O)[C@H]1C(=O)OC | 94.5 | 104 | 97 | 102 | 103 | 106 | 109 | 99.9 | 94.5 | 85.5 | 90.1 | 94.7 | 96.5 | 96.8 | 98.7 | 102 | 99 | 97.2 | 73.2 | 75.7 | 63.9 | 53.5 | 95.5 | 91.1 | 90.8 | 93.5 | 94.9 | 106 | 98.7 | 84.2 | 78 | 76.8 | 63.3
COc1cc(OC)c(NC(=O)Nc2cc(C)on2)cc1Cl | 94.9 | 98.8 | 110 | 99.6 | 101 | 106 | 102 | 106 | 107 | 110 | 106 | 90.3 | 95.9 | 96.8 | 98.2 | 108 | 104 | 95.5 | 106 | 107 | 102 | 101 | 98.1 | 90.7 | 97 | 97.8 | 96.5 | 96.5 | 106 | 102 | 96.2 | 91.7 | 92
CN(C)c1ccc(Nc2nc(N)n(C(=O)c3c(F)cccc3F)n2)cc1 | 106 | 115 | 125 | 79.5 | 122 | 127 | 121 | 117 | 114 | 29.1 | 88.2 | 122 | 116 | 115 | 70 | 132 | 126 | 130 | 137 | 114 | 28.8 | 60.2 | 114 | 115 | 120 | 72.4 | 125 | 125 | 118 | 126 | 120 | 41.2 | 68.3
C[N+](C)([O-])CCNc1ccc(NCC[N+](C)(C)[O-])c2c1C(=O)c1c(O)ccc(O)c1C2=O | 99.5 | 98.6 | 97.6 | 103 | 100 | 90.1 | 83.2 | 63.4 | 21.8 | 28.9 | 15.2 | 101 | 101 | 92.3 | 102 | 82.7 | 72.3 | 62.9 | 42.8 | 7.99 | 13.9 | 7.05 | 84.3 | 80.9 | 95.8 | 96 | 83.7 | 79.3 | 76.2 | 44.9 | 14.8 | 23.6 | 10.6
O=C1N\2CCC3=C([NH]C4=C3C=CC=C4)C2=N/C5=CC=CC=C15 | 119 | 120 | 128 | 126 | 129 | 130 | 129 | 129 | 132 | 113 | 92.3 | – | – | – | – | – | – | – | – | – | – | – | – | – | – | – | – | – | – | – | – | – | –
CCN(C)C(=O)Oc1cccc([C@H](C)N(C)C)c1 | 117 | 105 | 104 | 114 | 106 | 105 | 107 | 107 | 99.5 | 96.4 | 104 | 106 | 104 | – | 102 | 99.7 | 102 | 113 | 101 | 95.6 | 102 | 99.2 | 103 | 102 | 99.3 | 98.7 | 103 | 104 | 104 | 98.2 | 93.4 | 94.7 | 86.7
CN[S+](=O)([O-])CCc1ccc2[nH]cc(C3CCN(C)CC3)c2c1 | 95.6 | 98.2 | 99.7 | 99.5 | 101 | 103 | 108 | 102 | 112 | 103 | 105 | 91.6 | 91.6 | 84.7 | 96 | 101 | 100 | 101 | 107 | 102 | 98 | 101 | 87.8 | 94.2 | 96.4 | 94.4 | 99.9 | 99 | 107 | 96.3 | 97.4 | 101 | 98.9
CCN1C[C@]2(OC(=O)c3ccccc3NC(C)=O)CC[C@H](OC)[C@@]34[C@@H]2C[C@@H]([C@@H]13)[C@@]1(O)C[C@H](OC)[C@H]2C[C@@H]4[C@]1(O)[C@H]2OC | 91.8 | 109 | 110 | 113 | 114 | 109 | 106 | 111 | 103 | 106 | 108 | 105 | 109 | 116 | 104 | 113 | 111 | 119 | 108 | 99.1 | 105 | 114 | 103 | 111 | 115 | 110 | 117 | 106 | 115 | 110 | 104 | 107 | 102
NC(=O)c1cccc(N)c1 | 106 | 105 | 70.8 | 116 | 120 | 122 | 117 | 117 | 121 | 111 | 116 | 101 | 106 | 67.8 | 121 | 115 | 124 | 108 | 117 | 120 | 117 | 113 | 101 | 112 | 78.1 | 114 | 115 | 115 | 124 | 120 | 115 | 120 | 120
N[C@@H](CC(=O)N1CCn2c(nnc2C(F)(F)F)C1)Cc1cc(F)c(F)cc1F | 100 | 105 | 104 | 113 | 109 | 104 | 102 | 103 | 98.2 | 97 | 94.7 | 91 | 103 | 97.3 | 95.8 | 99.2 | 99.7 | 92.8 | – | 95.4 | 89.5 | 88.3 | 98.4 | 94.5 | 97.3 | 100 | 100 | 84.9 | 90.9 | 89.4 | 91.4 | 91.3 | 88
CN(C)c1ccc2cc(C(=O)N[C@@H](CCCNC(=N)CCl)C(=O)NCc3ccccc3)ccc2c1 | 103 | 113 | 105 | 113 | 112 | 103 | 108 | 107 | 104 | 93.9 | 19 | 121 | 111 | 97.9 | 115 | 106 | 116 | 122 | 116 | 104 | 93 | 9.92 | 109 | 108 | 108 | 109 | 110 | 101 | 99.6 | 97.1 | 106 | 92 | 8.85
COc1cccc2c1C(=O)c1c(O)c3c(c(O)c1C2=O)C[C@@](O)(C(C)=O)C[C@@H]3O[C@H]1C[C@H](N)[C@H](O)[C@H](C)O1 | 107 | 112 | 115 | 109 | 114 | 101 | 6.62 | 7.98 | 8.25 | 9.65 | 8.17 | 94.8 | 112 | 113 | 104 | 103 | 73.2 | 7.42 | 7.61 | 7.8 | 7.04 | 9.59 | 102 | 107 | 107 | 106 | 98 | 70.8 | 8.12 | 7.49 | 7.97 | 7.6 | 8.42
